Experimental data from US20040242871A1, “Novel arylheteroalkylamine derivatives” (priority 2001, published 2004).

Biological target: T1, Nitric oxide synthase from induced murine macrophage cell line J774A-1 (Mus musculus, UniProt P29477)
T1 construct: The reaction is started by adding 50 μl of cell lysate (prepared as above); endogenous in cells; host or cells: J774A-1 murine macrophage cell line, induced with LPS and IFN-gamma; crude cell lysate
Experiment: Screen 1: nitric oxide synthase inhibition, conversion of 3H-L-arginine into 3H-L-citrulline, lysate of induced J774A-1 cells
Type: biochemical
Conditions: J774A-1 cell lysate (LPS/IFNg induced), 1 hour at room temperature; read-out: IC50 (concentration of drug substance which gives 50% enzyme inhibition in the assay)
Procedure: The activity of compounds of formula (I), or a pharmaceutically acceptable salt, enantiomer or racemate thereof, may be screened for nitric oxide synthase inhibiting activity by a procedure based on that of Förstermann et al., Eur. J. Pharm., 1992, 225, 161-165. Nitric oxide synthase converts ^3H-L-arginine into ^3H-L-citrulline which can be separated by cation exchange chromatography and quantified by liquid scintillation counting.
Enzyme is prepared, after induction, from the cultured murine macrophage cell line J774A-1 (obtained from the laboratories of the Imperial Cancer Research Fund). J774A-1 cells are cultured in Dulbeccos Modified Eagles Medium (DMEM) supplemented with 10% foetal bovine serum, 4 mM L-glutamine and antibiotics (100 units/ml penicillin G, […] streptomycin & […] amphotericin B). Cells are routinely grown in […] flasks containing 35 ml medium kept at 37° C. and in a humidified atmosphere containing 5% CO2. […]
Labelled L-citrulline is separated from labelled L-arginine using Dowex AG-SOW. […] After allowing the samples to dry the L-citrulline is quantified by scintillation counting.
In a typical experiment basal activity is 300 dpm per 75 μl sample which is increased to 1900 dpm in the reagent controls. […] Compounds are tested at a range of concentrations and from the inhibitions obtained IC50 values are calculated. […]

| Structure (SMILES) | IC50 |
| --- | --- |
| N=C(N)NN [aminoguanidie] | 10 µM |

Test system: not given
Experiment: not given
Conditions: not given

| melting point | Structure (SMILES) |
| --- | --- |
| 150 to 152 °C | Cc1ccc(C#N)c(SC(C[C@H](N)CO)c2ccno2)n1.O=C(O)/C=C/C(=O)O (stereo partly drawn) [Example 51, 2-[[(3S)-3-Amino-4-hydroxy-1-(5-isoxazolyl)butyl]thio]-6-methyl-3-pyridinecarbonitrile (E)-butenedioate] |
| 80 °C | CC(C)(O)[C@@H](N)C[C@@H](Oc1cc(Cl)c(F)cc1C#N)c1ccccc1.O=C(O)C(=O)O [Example 47, 2-[[(1R,3S)-3-Amino-4-hydroxy-4-methyl-1-phenylpentyl]oxy]-4-chloro-5-fluoro benzonitrile ethanedioate] |
| 162.5 to 163 °C | COc1cc(S[C@@H](C[C@@H](N)CO)c2ccccc2)c(C#N)cn1.O=C(O)/C=C/C(=O)O [Example 12, 4-[[(1S,3R)-3-Amino-4-hydroxy-1-phenylbutyl]thio]-6-methoxy-3-pyridinecarbonitrile, (E)-butenedioate] |
| 179 to 185 °C | COc1cc(S[C@H](C[C@H](N)CO)c2ccccc2F)c(C#N)cn1.O=C(O)C(=O)O [Example 35, 4-[[(1R,3S)-3-Amino-1-(2-fluorophenyl)-4-hydroxybutyl]thio]-6-methoxy-3-pyridinecarbonitrile ethanedioate] |
| 178 to 180 °C | COc1cc(S[C@H](C[C@H](N)CO)c2ccccc2)c(Br)cn1 [Example 27, (β^1S,β^1R)-β-Amino-δ-[(5-bromo-2-methoxy-4-pyridinyl)thio]-benzenebutanol (E)-2-butenedioate] |
